According to the supplement of paper PMC13380429:

Legend:
Conditions in all cases: 72 h
Caco-2 [1] = experiment: cell viability relative to DMSO; higher = less toxic
Calu-3 [2] = experiment: as above
HepG2 [3] = experiment: as above
U2OS [4] = experiment: as above
Vero E6 [5] = experiment: as above
Caco-2 [6] = experiment: relative viability EC50 (midpoint between 100% and the lowest measured viability); higher = less toxic
Calu-3 [7] = experiment: as above
HepG2 [8] = experiment: as above
U2OS [9] = experiment: as above
Vero E6 [10] = experiment: as above
Caco-2 [11] = experiment: drug sensitivity score (DSS) for viability; higher = more toxic; extreme values may be limits of the assay
Calu-3 [12] = experiment: as above
HepG2 [13] = experiment: as above
U2OS [14] = experiment: as above
Vero E6 [15] = experiment: as above

Structure (SMILES)	cell viability (Caco-2 [1]; 1 nM) [%]	cell viability (Caco-2 [1]; 10 nM) [%]	cell viability (Caco-2 [1]; 100 nM) [%]	cell viability (Caco-2 [1]; 1000 nM) [%]	cell viability (Caco-2 [1]; 10000 nM) [%]	cell viability (Calu-3 [2]; 1 nM) [%]	cell viability (Calu-3 [2]; 10 nM) [%]	cell viability (Calu-3 [2]; 100 nM) [%]	cell viability (Calu-3 [2]; 1000 nM) [%]	cell viability (Calu-3 [2]; 10000 nM) [%]	cell viability (HepG2 [3]; 1 nM) [%]	cell viability (HepG2 [3]; 10 nM) [%]	cell viability (HepG2 [3]; 100 nM) [%]	cell viability (HepG2 [3]; 1000 nM) [%]	cell viability (HepG2 [3]; 10000 nM) [%]	cell viability (U2OS [4]; 1 nM) [%]	cell viability (U2OS [4]; 10 nM) [%]	cell viability (U2OS [4]; 100 nM) [%]	cell viability (U2OS [4]; 1000 nM) [%]	cell viability (U2OS [4]; 10000 nM) [%]	cell viability (Vero E6 [5]; 1 nM) [%]	cell viability (Vero E6 [5]; 10 nM) [%]	cell viability (Vero E6 [5]; 100 nM) [%]	cell viability (Vero E6 [5]; 1000 nM) [%]	cell viability (Vero E6 [5]; 10000 nM) [%]	relative viability EC50 (Caco-2 [6]) [µM]	relative viability EC50 (Calu-3 [7]) [µM]	relative viability EC50 (HepG2 [8]) [µM]	relative viability EC50 (U2OS [9]) [µM]	relative viability EC50 (Vero E6 [10]) [µM]	drug sensitivity score (Caco-2 [11])	drug sensitivity score (Calu-3 [12])	drug sensitivity score (HepG2 [13])	drug sensitivity score (U2OS [14])	drug sensitivity score (Vero E6 [15])
CCCCN1CCCC1CNC(=O)c1cc(C#N)c2ccccc2c1OC (stereo not given) [nafadotride]	98.8	97.6	97.4	104	102	102	106	87.2	105	97.1	104	103	105	97.5	96.7	98.3	101	104	101	92.2	102	96.8	105	100	92.5	> 10	> 10	> 10	> 10	> 10	0	0	0	0	0
Cc1cccc(C)c1NC(=O)CN1CCCC1=O [nefiracetam]	98.3	91.2	105	101	91.2	104	104	97.2	108	98.7	102	104	96.9	102	100	96.5	93.3	102	97.2	102	94.5	106	92.6	102	111	> 10	> 10	> 10	> 10	> 10	0	0	0	0	0
COc1nc(N)nc2c1ncn2[C@@H]1O[C@H](CO)[C@@H](O)[C@@H]1O [nelarabine]	97.3	98	101	98.6	104	115	101	94.8	92.3	107	105	104	105	95.9	109	103	97.5	98.5	95.6	102	97.4	97.3	99.5	97.6	98.5	> 10	> 10	> 10	> 10	> 10	0	0	0	0	0
COc1ccc([C@@H]2CC(=O)c3c(O)cc(O[C@@H]4O[C@H](CO)[C@@H](O)[C@H](O)[C@H]4O[C@@H]4O[C@@H](C)[C@H](O)[C@@H](O)[C@H]4O)cc3O2)cc1O [neohesperidin]	94.5	99.5	99.4	90.1	99.3	102	91.1	95.7	101	102	102	97.8	103	99.3	101	96.7	98.8	97.2	96	108	98.2	92.8	93.6	95.9	104	> 10	> 10	> 10	> 10	> 10	0	0	0	0	0
CO[C@]12C[C@@H](COC(=O)c3cncc(Br)c3)CN(C)[C@@H]1Cc1cn(C)c3cccc2c13 [nicergoline]	97.7	96	102	95	95.4	108	112	111	99.7	96.6	111	101	102	118	98.2	97.1	94.8	100	95.4	96.8	93.7	101	92.6	97.4	108	> 10	> 10	> 10	> 10	> 10	0	0	0	0	0
CCN(CC)Cc1nccn1-c1ccc([N+](=O)[O-])cc1C(=O)c1ccccc1Cl [nizofenone]	124	92.8	81.8	108	81.1	93.3	105	98.8	105	99.5	100	96	98.4	95.7	95.5	105	102	97.1	102	98.7	102	100	104	102	92.9	> 10	> 10	> 10	> 10	> 10	0.3	0	0	0	0
Cc1c(Cl)c(C)[n+]([O-])c(Cl)c1-c1noc(-c2cc(O)c(O)c([N+](=O)[O-])c2)n1 [opicapone]	87.3	99	93.8	111	95.4	84.3	106	95.3	102	105	108	103	110	88.1	97.9	100	104	94.4	102	104	97.3	96.6	96.3	98.6	95.8	> 10	> 10	> 10	> 10	> 10	0	0	0.4	0	0
CCCCCCCCCCC[C@@H](C[C@@H]1OC(=O)[C@H]1CCCCCC)OC(=O)[C@H](CC(C)C)NC=O [orlistat]	111	98.5	99.9	99	94.9	103	97.4	110	102	103	104	106	108	96.7	100	96	97.2	92.6	105	105	96.2	98.2	89.9	82.8	102	> 10	> 10	> 10	> 10	> 10	0	0	0	0	0
CC(C)C[C@H](NC(=O)[C@H](CCCCN)NC(=O)[C@H](CCCNC(=N)N)NC(=O)[C@H](C)NC(=O)[C@H](CO)NC(=O)[C@H](CCCCN)NC(=O)[C@H](CCCNC(=N)N)NC(=O)[C@H](C)NC(=O)CNC(=O)[C@@H](NC(=O)[C@H](Cc1ccccc1)NC(=O)CNC(=O)CNC(=O)[C@@H](N)Cc1ccccc1)[C@@H](C)O)C(=O)N[C@@H](C)C(=O)N[C@@H](CC(N)=O)C(=O)N[C@@H](CCC(N)=O)C(=O)O [orphanin-fq]	90.9	93.6	104	106	96.5	104	107	101	112	96.8	94.3	97.4	94.5	98.7	106	98.1	93.3	97.7	97.5	96.1	92.2	99.7	95.3	97.1	98.6	> 10	> 10	> 10	> 10	> 10	0	0	0	0	0
CCN(CC)CC1CCCCN1CC(=O)N1c2ccccc2C(=O)Nc2cccnc21 (stereo not given) [otenzepad]	104	104	108	97.6	98.8	102	105	96	96.3	101	94.3	104	92.3	101	98.9	100	102	102	100	97.4	97.8	97	95.7	92.4	99.5	> 10	> 10	> 10	> 10	> 10	0	0	0	0	0
O=C1CCC[C@@H]2[C@H]3CCC[N+]4([O-])CCC[C@@H](CN12)[C@@H]34 (stereo not given in full) [oxymatrine]	97.1	103	96.6	95.5	88.3	89	93.1	101	91.7	86.9	104	97.6	98.5	96.3	108	97.8	106	98	102	96.7	102	97.5	101	98.4	104	> 10	> 10	> 10	> 10	> 10	0	0	0	0	0
NC(=O)CC[C@H](NC(=O)Cc1ccccc1)C(=O)O [phenylacetylglutamine]	91.4	101	82.2	96	92.9	90.6	102	94.9	95.8	98.3	93.9	94.4	96.2	90.9	98.5	97	101	97.8	92.2	97.5	104	94.6	103	100	105	> 10	> 10	> 10	> 10	> 10	0	0	0	0	0
O=S(=O)(O)c1ccc2[nH]c(-c3ccccc3)nc2c1 [phenylbenzimidazole-sulfonic-acid]	98.9	95.8	90.3	93	96.8	111	112	106	105	89.2	85.6	93	93.2	94.3	99.2	97.9	96.7	103	99.3	99.4	96.3	89.7	97.3	96.7	107	> 10	> 10	> 10	> 10	> 10	0	0	0	0	0
